Test results: patent US20230120597A1, “CO-AGONISTS AT GLP-1 AND GIP RECEPTORS SUITABLE FOR ORAL DELIVERY” (Novo Nordisk A/S, priority 2020, published 2023)
Where two headings read alike, the source gives them in different places. Starred links: 1 amine or outer side, 2 acyl side, 3 side chain; linkers in the order of their positions; H or OH if unused. Non-standard residues stand in square brackets, D forms with d. Residues, ends and D or L forms follow the SMILES beside them. Groups on a side chain read outwards from the residue. *: point of attachment. C18 diacid = O=C(O)CCCCCCCCCCCCCCCCC(=O)*; γGlu = O=C(O)[C@H](CCC(=O)[*:2])N[*:1]; εLys = N[C@@H](CCCCN[*:1])C(=O)[*:2]; Aib = CC(C)(N)C(=O)O

Columns and labels:
human GIP receptor = target: T1, human GIP receptor (Homo sapiens, UniProt P48546); assay: In vitro functional potency, CRE luciferase reporter gene assay, whole BHK cells expressing hGIPR; type: cell-based; conditions: BHK CRE luc2P hGIPR cells
T1 construct: expressed in transfected cells; host or cells: BHK (parent line BHKTS13), clone BHK CRE luc2P hGIPR
T1 sequence (P48546 22-466): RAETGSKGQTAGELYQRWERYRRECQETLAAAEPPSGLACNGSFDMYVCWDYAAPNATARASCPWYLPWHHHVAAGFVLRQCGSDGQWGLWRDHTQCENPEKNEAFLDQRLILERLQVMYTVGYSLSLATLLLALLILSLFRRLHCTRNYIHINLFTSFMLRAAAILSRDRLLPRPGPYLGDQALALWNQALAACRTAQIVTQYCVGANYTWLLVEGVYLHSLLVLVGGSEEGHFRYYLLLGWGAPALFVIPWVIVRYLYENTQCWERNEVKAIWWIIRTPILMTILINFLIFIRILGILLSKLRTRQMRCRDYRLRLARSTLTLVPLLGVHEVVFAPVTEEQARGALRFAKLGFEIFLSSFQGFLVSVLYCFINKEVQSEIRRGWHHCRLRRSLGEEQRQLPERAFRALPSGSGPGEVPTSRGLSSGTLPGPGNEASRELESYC

[1] = Pharmacokinetic study in dogs, oral dosing of tablet compositions with SNAC; type: in vivo, Beagle dogs; conditions: for Tmax / half-life: male
Method in brief: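 The tablets held 3-4 mg compound plus 100-300 mg SNAC and were given to fasted male beagles (6-8 per group); non-compartmental PK per animal.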

human GLP-1 receptor = target: T2, human GLP-1 receptor (Homo sapiens, UniProt P43220); assay: In vitro functional potency, CRE luciferase reporter gene assay, whole BHK cells expressing hGLP-1R; type: cell-based; conditions: BHK CRE luc2P hGLP-1R cells
T2 construct: expressed in transfected cells; host or cells: BHK (parent line BHKTS13), clone BHK CRE luc2P hGLP-1R
T2 sequence (P43220 24-463): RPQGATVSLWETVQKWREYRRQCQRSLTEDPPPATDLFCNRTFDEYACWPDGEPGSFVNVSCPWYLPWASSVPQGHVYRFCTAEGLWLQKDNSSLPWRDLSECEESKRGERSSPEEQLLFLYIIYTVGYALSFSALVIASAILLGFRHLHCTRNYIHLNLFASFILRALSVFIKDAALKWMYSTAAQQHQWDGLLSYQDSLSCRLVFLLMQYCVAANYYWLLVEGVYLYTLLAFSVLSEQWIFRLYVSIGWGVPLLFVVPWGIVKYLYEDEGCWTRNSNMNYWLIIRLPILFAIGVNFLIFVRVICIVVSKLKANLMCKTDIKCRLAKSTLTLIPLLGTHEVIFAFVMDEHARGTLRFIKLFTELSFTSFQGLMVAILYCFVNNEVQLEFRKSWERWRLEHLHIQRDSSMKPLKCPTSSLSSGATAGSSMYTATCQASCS

[2] = in vivo; cited from earlier work
[3] = hGIPR, CRE Luc 1% HSA EC50, 1% HSA
[4] = hGLP-1R, CRE Luc 1% HSA EC50, 1% HSA

Work on CC[C@H](C)[C@H](NC(=O)[C@H](Cc1ccccc1)NC(=O)[C@H](CCC(=O)O)NC(=O)[C@H](CCCNC(=N)N)NC(=O)[C@H](C)NC(=O)[C@H](C)NC(=O)[C@H](CCC(N)=O)NC(=O)[C@H](CCCCNC(=O)[C@@H](N)CCCCNC(=O)[C@@H](N)CCCCNC(=O)CC[C@H](NC(=O)CCCCCCCCCCCCCCCCC(=O)O)C(=O)O)NC(=O)[C@H](CCC(=O)O)NC(=O)[C@H](CC(C)C)NC(=O)[C@H](Cc1ccc(O)cc1)NC(=O)[C@@H](NC(=O)[C@H](CO)NC(=O)[C@H](Cc1ccc(O)cc1)NC(=O)[C@H](CC(=O)O)NC(=O)[C@H](CO)NC(=O)[C@@H](NC(=O)[C@H](Cc1ccccc1)NC(=O)[C@@H](NC(=O)CNC(=O)[C@H](CCC(=O)O)NC(=O)C(C)(C)NC(=O)[C@@H](N)Cc1ccc(O)cc1)[C@@H](C)O)[C@@H](C)O)[C@@H](C)CC)C(=O)N[C@@H](CC(N)=O)C(=O)N[C@@H](Cc1c[nH]c2ccccc12)C(=O)N[C@@H](CC(C)C)C(=O)N[C@@H](CC(C)C)C(=O)N[C@@H](C)C(=O)NCC(=O)NCC(=O)N1CCC[C@H]1C(=O)N[C@@H](CO)C(=O)N[C@@H](CO)C(=O)NCC(=O)N[C@@H](C)C(=O)N1CCC[C@H]1C(=O)N1CCC[C@H]1C(=O)N1CCC[C@H]1C(=O)N[C@@H](CO)C(=O)O [Compound No. 11] (H-Y[Aib]EGTFTSDYSIYLEK([εLys-εLys-γGlu-C18 diacid])QAAREFINWLLAGGPSSGAPPPS-OH; N-terminus assumed) yielded an EC50 (human GIP receptor; 0% HSA, read-out: hGIPR, CRE Luc 0% HSA EC50) of 0.0099 nM, an EC50 (human GIP receptor; [3]) of 0.45 nM and an AUC/Dose ([1]; dog, in vivo, po) of 7.1 kg·h/L. For the same compound, the Tmax ([1]; beagle, dog, in vivo, po, Tmax) was 1.4 h, the half-life ([1]; beagle, dog, in vivo, po, t1/2) was 34 h and the EC50 (human GLP-1 receptor; 0% HSA, read-out: hGLP-1R, CRE Luc 0% HSA EC50) was 0.0033 nM. It also gave an EC50 (human GLP-1 receptor; [4]) of 0.132 nM.
Compound CC[C@H](C)[C@H](NC(=O)[C@H](Cc1ccccc1)NC(=O)[C@H](CCC(=O)O)NC(=O)[C@H](CCCNC(=N)N)NC(=O)[C@H](C)NC(=O)[C@H](C)NC(=O)[C@H](CCC(N)=O)NC(=O)[C@H](CCCCNC(=O)[C@@H](N)CCCCNC(=O)[C@@H](N)CCCCNC(=O)CC[C@H](NC(=O)CCCCCCCCCCCCCCCCC(=O)O)C(=O)O)NC(=O)[C@H](CCC(=O)O)NC(=O)[C@H](CC(C)C)NC(=O)[C@H](Cc1ccc(O)cc1)NC(=O)[C@@H](NC(=O)[C@H](CO)NC(=O)[C@H](Cc1ccc(O)cc1)NC(=O)[C@H](CC(=O)O)NC(=O)[C@H](CO)NC(=O)[C@@H](NC(=O)[C@H](Cc1ccccc1)NC(=O)[C@@H](NC(=O)CNC(=O)[C@H](CCC(=O)O)NC(=O)C(C)(C)NC(=O)[C@@H](N)Cc1ccc(O)cc1)[C@@H](C)O)[C@@H](C)O)[C@@H](C)CC)C(=O)N[C@@H](CCC(=O)O)C(=O)N[C@@H](Cc1c[nH]c2ccccc12)C(=O)N[C@@H](CC(C)C)C(=O)N[C@@H](CC(C)C)C(=O)N[C@@H](CCCNC(=N)N)C(=O)NCC(=O)NCC(=O)N1CCC[C@H]1C(=O)N[C@@H](CCC(=O)O)C(=O)N[C@@H](CO)C(=O)NCC(=O)N[C@@H](C)C(=O)N1CCC[C@H]1C(=O)N1CCC[C@H]1C(=O)N1CCC[C@H]1C(=O)N[C@@H](CO)C(=O)O [Compound No. 13] (H-Y[Aib]EGTFTSDYSIYLEK([εLys-εLys-γGlu-C18 diacid])QAAREFIEWLLRGGPESGAPPPS-OH) has an EC50 (human GIP receptor; hGIPR, CRE Luc 0% HSA EC50, 0% HSA) of 0.0139 nM, an EC50 (human GIP receptor; [3]) of 0.257 nM and a half-life ([1]; dog, in vivo, oral tablet, SNAC 100 mg, test substance 3 mg, Beagle dogs, harmonic mean, read-out: t1/2 (converted)) of 60 h. It also gave a Tmax ([1]; dog, in vivo, oral tablet, SNAC 100 mg, test substance 3 mg, Beagle dogs, median, read-out: Tmax) of 1.5 h, an AUC/Dose ([1]; oral tablet, SNAC 100 mg, test substance 3 mg, Beagle dogs, arithmetic mean) of 14.8 kg·h/L and an EC50 (human GLP-1 receptor; hGLP-1R, CRE Luc 0% HSA EC50, 0% HSA) of 0.0074 nM. The EC50 (human GLP-1 receptor; [4]) was 0.204 nM.
For “hGLP-1: human glucagon-like peptide 1, native hormone whose half-life in man is cited from Meier et al.”, the “half-life measured in man” value [2] is listed as 2 to 4 min.
